Measurements reported in patent US20230233640A1, “ANTIVIRAL PREPARATION FROM CHESTNUT SHELLS OF CASTANEA SATIVA MILL” (Micronature S.R.L., priority 2019, published 2023).
Like-named read-outs stand apart in the source and are kept apart here.

Legend:
[1] = Cytotoxicity in MT-4 cells (MTT); format: cell-based; settings: human
Excerpt: (§1) Cell lines were purchased from American Type Culture Collection (ATCC). The absence of mycoplasma contamination was checked periodically by the Hoechst staining method. Cell lines supporting the multiplication of RNA viruses were the following: CD4+ human T-cells containing an integrated HTLV-1 genome (MT-4); Madin Darby Bovine Kidney (MDBK) [ATCC CCL 22 (NBL-1) Bos Taurus]; Baby Hamster Kidney (BHK-21) [ATCC CCL 10 (C-13) Mesocricetus auratus], Vero cells (CCL-81; American Type Culture Collection, Manassas, VA, USA)
(§2) Cytotoxicity assays were run in parallel with antiviral assays.
Exponentially growing MT-4 cells were seeded at an initial density of 1 × 10^5 cells/ml in 96-well plates in RPMI-1640 medium, supplemented with 10% fetal bovine serum (FBS), 100 units/mL penicillin G and 100 µg/mL streptomycin. Cell cultures were then incubated at 37° C. in a humidified, 5% CO2 atmosphere, in the absence or presence of serial dilutions of test compounds. Cell viability was determined after 96 hrs at 37° C. by the 3-(4,5-dimethylthiazol-2-yl)-2,5-diphenyl-tetrazolium bromide (MTT) method (Pauwels et al. 1988).

[2] = Cytotoxicity in VERO cells; format: cell-based; settings: reference marked * (µM)
Excerpt: as §2

MDBK cells = test: Cytotoxicity in MDBK cells (MTT); format: cell-based, Bos Taurus; settings: reference marked * (µM)
Excerpt: as §1, §2
MDBK cells were seeded in 96-well plates at an initial density of 6 × 10^5 and 1 × 10^6 cells/mL, respectively, in Minimum Essential Medium with Earle’s salts (MEM-E), L-glutamine, 1 mM sodium pyruvate and 25 mg/L kanamycin, supplemented with 10% horse serum (MDBK). Cell cultures were then incubated at 37° C. in a humidified, 5% CO2 atmosphere in the absence or presence of serial dilutions of test compounds. Cell viability was determined after 72 hrs at 37° C. by the MTT method. […] Vero cells (1 × 10^6) were plated in 6-well multiwells and incubated the next day with the substance at the same concentrations used in the antiviral assays. […]

BVDV = format: cell-based, bovine viral diarrhoea virus (BVDV) strain NADL; settings: reference marked * (µM); 50% protection of MDBK cells; read-out: In vitro efficacy EC50 BVDV

## enfuvirtide
[1]; mock-infected MT-4 cells, viability reduced by 50%, MTT method, read-out: Cytotoxicity in MT-4 cells CC50
  CC50 at 96 h: > 100 µg/mL

## O=C1Nc2ccc(Cl)cc2[C@@](C#CC2CC2)(C(F)(F)F)O1 [EFV, Efavirenz]
[1]
  CC50 at 96 h: 40 µM

## CC[C@H](C)[C@H](NC(=O)[C@H](C)NC(=O)[C@H](CCC(=O)O)NC(=O)[C@H](CCC(=O)O)NC(=O)[C@H](CC(C)C)NC(=O)[C@H](CCCCN)NC(=O)[C@H](CCCCN)NC(=O)[C@H](CCSC)NC(=O)[C@H](CCC(=O)O)NC(=O)[C@H](Cc1ccc(O)cc1)NC(=O)[C@H](CCC(=O)O)NC(=O)[C@H](CC(C)C)NC(=O)[C@H](CC(=O)O)NC(=O)[C@H](CC(C)C)NC(=O)[C@H](Cc1ccccc1)NC(=O)[C@@H](NC(=O)[C@@H](NC(=O)[C@H](CC(N)=O)NC(=O)[C@@H](NC(=O)[C@H](CCC(N)=O)NC(=O)[C@H](CC(=O)O)NC(=O)[C@H](CC(C)C)NC(=O)[C@@H](N)CO)[C@@H](C)CC)C(C)C)[C@@H](C)O)C(=O)N[C@@H](CCCCN)C(=O)N[C@@H](CCCCN)C(=O)N[C@@H](CC(C)C)C(=O)N[C@@H](CCC(=O)O)C(=O)N[C@@H](CCC(=O)O)C(=O)N[C@@H](CO)C(=O)N[C@@H](Cc1ccc(O)cc1)C(=O)N[C@H](C(=O)N[C@@H](CC(=O)O)C(=O)N[C@@H](CC(C)C)C(=O)N[C@@H](CCCCN)C(=O)N[C@@H](CCC(=O)O)C(=O)N[C@@H](CC(C)C)C(=O)O)[C@@H](C)CC [EK1]
SARS-CoV-2
  EC50: 5.4 µM
[2]
  CC50: > 100 µM

## Enfuvirtide
HIV-1
  In vitro efficacy EC50 HIV-1: 0.017 µg/mL

## C[C@@]1(O)[C@H](O)[C@@H](CO)O[C@H]1n1cnc2c(=O)[nH]c(N)nc21 [NM 108]
MDBK cells
  CC50: > 100 µM
BVDV
  EC50: 1.6 µM
